Numbers after ± are expanded uncertainties.
Assay: mn = molality of the nth substance listed, in mol/kg
Details: 298.15 K, 101 kPa, Liquid, Vibrating tube method

mass density (m1 = 0.1262) | mass density (m1 = 0.2647) | mass density (m1 = 0.6529) | mass density (m1 = 1.012) | mass density (m1 = 1.477) | mass density (m1 = 2.03) | mass density (m1 = 2.537) | mass density (m1 = 3.196) | mass density (m1 = 3.75) | mass density (m1 = 0.0212) | mass density (m1 = 0.0584) | mass density (m1 = 0.1012) | mass density (m1 = 0.2396) | mass density (m1 = 0.6942) | mass density (m1 = 1.248) | mass density (m1 = 2.273) | mass density (m1 = 3.243) | mass density (m1 = 4.387) | mass density (m1 = 5.781) | mass density (m1 = 7.087) | SMILES
1006.93 ± 0.14 kg/m3 | 1017.35 ± 0.14 kg/m3 | 1044.51 ± 0.14 kg/m3 | 1067.2 ± 0.14 kg/m3 | 1093.32 ± 0.15 kg/m3 | 1120.89 ± 0.16 kg/m3 | 1142.98 ± 0.17 kg/m3 | 1168.39 ± 0.19 kg/m3 | 1187 ± 0.2 kg/m3 |  |  |  |  |  |  |  |  |  |  |  | O=S(=O)(O)CC(O)CN1CCOCC1 (stereo not given) [3-morpholino-2-hydroxypropanesulfonic acid] + O
 |  |  |  |  |  |  |  |  | 998.4 ± 0.13 kg/m3 | 1000.76 ± 0.13 kg/m3 | 1003.44 ± 0.13 kg/m3 | 1011.89 ± 0.13 kg/m3 | 1037.46 ± 0.13 kg/m3 | 1064.7 ± 0.13 kg/m3 | 1106.41 ± 0.14 kg/m3 | 1138.03 ± 0.15 kg/m3 | 1168.14 ± 0.16 kg/m3 | 1195.72 ± 0.17 kg/m3 | 1217.61 ± 0.18 kg/m3 | O=S(=O)(O)CCCN1CCOCC1 [4-morpholinepropanesulfonic acid] + O

— the NIST ThermoML archive (doi:10.1016/j.jct.2011.05.036)
